Measured values reported in ChEMBL document CHEMBL3044672, “N9- and N7-(Chloromethyl Phenymethyl)Chloropurine Derivatives from , '-Dichloroxylenes: Synthesis and Anticancer Activity” (2005).

Key:
Format in all cases: functional
A498 = assay: Cytotoxicity against Homo sapiens (human) A498 cells after 48 hr by sulforhodamine B assay; conditions: A498, 48 h
OVCAR-8 = assay: Cytotoxicity against Homo sapiens (human) OVCAR8 cells after 48 hr by sulforhodamine B assay; conditions: OVCAR-8, 48 h
OVCAR-4 = assay: Cytotoxicity against Homo sapiens (human) OVCAR4 cells after 48 hr by sulforhodamine B assay; conditions: OVCAR-4, 48 h
OVCAR-3 = assay: Cytotoxicity against Homo sapiens (human) OVCAR3 cells after 48 hr by sulforhodamine B assay; conditions: OVCAR-3, 48 h
SK-MEL-28 = assay: Cytotoxicity against Homo sapiens (human) SK-MEL-28 cells after 48 hr by sulforhodamine B assay; conditions: SK-MEL-28, 48 h
U-251 = assay: Cytotoxicity against Homo sapiens (human) U251 cells after 48 hr by sulforhodamine B assay; conditions: U-251, 48 h
SNB-75 = assay: Cytotoxicity against Homo sapiens (human) SNB75 cells after 48 hr by sulforhodamine B assay; conditions: SNB-75, 48 h
SF-539 = assay: Cytotoxicity against Homo sapiens (human) SF539 cells after 48 hr by sulforhodamine B assay; conditions: SF-539, 48 h
MDA-MB-435 = assay: Cytotoxicity against Homo sapiens (human) MDA-MB-435 cells after 48 hr by sulforhodamine B assay; conditions: MDA-MB-435, 48 h
BT-549 = assay: Cytotoxicity against Homo sapiens (human) BT549 cells after 48 hr by sulforhodamine B assay; conditions: BT-549, 48 h
MCF7 = assay: Cytotoxicity against Homo sapiens (human) MCF7 cells after 48 hr by sulforhodamine B assay; conditions: MCF7, 48 h
UO-31 = assay: Cytotoxicity against Homo sapiens (human) UO31 cells after 48 hr by sulforhodamine B assay; conditions: UO-31, 48 h
PC-3 = assay: Cytotoxicity against Homo sapiens (human) PC3 cells after 48 hr by sulforhodamine B assay; conditions: PC-3, 48 h
SN12C = assay: Cytotoxicity against Homo sapiens (human) SN12C cells after 48 hr by sulforhodamine B assay
SW-620 = assay: Cytotoxicity against Homo sapiens (human) SW620 cells after 48 hr by sulforhodamine B assay; conditions: SW-620, 48 h
KM12 = assay: Cytotoxicity against Homo sapiens (human) KM12 cells after 48 hr by sulforhodamine B assay; conditions: KM12, 48 h; for CC50: read-out: LC50 (the source's name)
HT-29 = assay: Cytotoxicity against Homo sapiens (human) HT-29 cells after 48 hr by sulforhodamine B assay; conditions: HT-29, 48 h
HCT-15 = assay: Cytotoxicity against Homo sapiens (human) HCT15 cells after 48 hr by sulforhodamine B assay; conditions: HCT-15, 48 h; for CC50: read-out: LC50 (the source's name)
HCT-116 = assay: Cytotoxicity against Homo sapiens (human) HCT116 cells after 48 hr by sulforhodamine B assay; conditions: HCT-116, 48 h; for CC50: read-out: LC50 (the source's name)
NCI-H522 = assay: Cytotoxicity against Homo sapiens (human) NCI-H522 cells after 48 hr by sulforhodamine B assay; conditions: NCI-H522, 48 h; for CC50: read-out: LC50 (the source's name)
NCI-H226 = assay: Cytotoxicity against Homo sapiens (human) NCI-H226 cells after 48 hr by sulforhodamine B assay; conditions: NCI-H226, 48 h; for CC50: read-out: LC50 (the source's name)
RPMI-8226 = assay: Cytotoxicity against Homo sapiens (human) RPMI8226 cells after 48 hr by sulforhodamine B assay; conditions: RPMI-8226, 48 h
K562 = assay: Cytotoxicity against Homo sapiens (human) K562 cells after 48 hr by sulforhodamine B assay; conditions: K562, 48 h; for CC50: read-out: LC50 (the source's name)
CCRF-CEM = assay: Cytotoxicity against Homo sapiens (human) CCRF-CEM cells after 48 hr by sulforhodamine B assay; conditions: for CC50: read-out: LC50 (the source's name)
SF-268 = assay: Cytotoxicity against Homo sapiens (human) SF268 cells assessed as cell growth at 10^-4 M after 48 hr by […] assay; conditions: SF-268, 48 h, read-out: Activity
NCI-H460 = assay: Cytotoxicity against Homo sapiens (human) NCI-H460 cells assessed as cell growth at 10^-4 M after 48 hr by Alamar blue assay; conditions: NCI-H460, 48 h, read-out: Activity
COLO 205 = assay: Cytotoxicity against Homo sapiens (human) COLO205 cells after 48 hr by sulforhodamine B assay; conditions: COLO 205, 48 h
[1] = read-out: LC50 (the source's name)

ClCc1ccccc1Cn1cnc2c(Cl)nc(Cl)nc21
GI50 (A498): 2400 nM | LC50 (lethal concentration, 50% cell kill) (A498): 9550 nM | TGI (A498): 4780 nM | GI50 (OVCAR-8): 1230 nM | LC50 (concentration killing 50% of cells) (OVCAR-8): 6450 nM | TGI (OVCAR-8): 2810 nM | GI50 (OVCAR-4): 1770 nM | TGI (OVCAR-4): 3630 nM | GI50 (OVCAR-3): 210 nM | LC50 (OVCAR-3): 1540 nM | TGI (OVCAR-3): 510 nM | GI50 (SK-MEL-28): 1230 nM | TGI (SK-MEL-28): 3310 nM | GI50 (U-251): 310 nM | LC50 (concentration killing 50% of cells) (U-251): 4570 nM | TGI (U-251): 1020 nM | GI50 (SNB-75): 1540 nM | TGI (SNB-75): 3540 nM | GI50 (SF-539): 1470 nM | LC50 (concentration killing 50% of cells) (SF-539): 5620 nM | TGI (SF-539): 2880 nM | GI50 (MDA-MB-435): 1620 nM | LC50 (MDA-MB-435): 6450 nM | TGI (MDA-MB-435): 3230 nM | GI50 (BT-549): 450 nM | LC50 (50% lethal concentration) (BT-549): 4160 nM | TGI (BT-549): 1470 nM | GI50 (MCF7): 810 nM | LC50 (concentration killing 50% of cells) (MCF7): > 100000 nM | TGI (MCF7): 1820 nM | GI50 (UO-31): 420 nM | LC50 (concentration causing 50% net cell kill) (UO-31): 5920 nM | TGI (UO-31): 1510 nM | GI50 (PC-3): 440 nM | LC50 (concentration causing 50% cell kill) (PC-3): 5120 nM | TGI (PC-3): 1620 nM | GI50 (SN12C): 720 nM | LC50 (50% lethal concentration) (SN12C): 4670 nM | TGI (SN12C): 2040 nM | GI50 (SW-620): 150 nM | TGI (SW-620): 350 nM | CC50 (SW-620; [1]): 810 nM | GI50 (KM12): 1470 nM | TGI (KM12): 2950 nM | CC50 (KM12): 5880 nM | GI50 (HT-29): 420 nM | TGI (HT-29): > 100000 nM | CC50 (HT-29; [1]): > 100000 nM | GI50 (HCT-15): 330 nM | TGI (HCT-15): 1200 nM | CC50 (HCT-15): 4780 nM | GI50 (HCT-116): 190 nM | TGI (HCT-116): 380 nM | CC50 (HCT-116): 750 nM | GI50 (NCI-H522): 580 nM | TGI (NCI-H522): 1990 nM | CC50 (NCI-H522): 6760 nM | GI50 (NCI-H226): 1730 nM | TGI (NCI-H226): 3380 nM | CC50 (NCI-H226): 6760 nM | GI50 (RPMI-8226): 380 nM | TGI (RPMI-8226): 1540 nM | GI50 (K562): 150 nM | TGI (K562): 370 nM | CC50 (K562): 910 nM | GI50 (CCRF-CEM): 30 nM | TGI (CCRF-CEM): 90 nM | CC50 (CCRF-CEM): 470 nM | growth at 100 µM (SF-268): 0% | growth at 100 µM (NCI-H460): 0%

ClCc1ccc(Cn2cnc3c(Cl)ncnc32)cc1
GI50 (A498): 12900 nM | LC50 (lethal concentration, 50% cell kill) (A498): 57500 nM | TGI (A498): 26900 nM | GI50 (OVCAR-8): 3020 nM | LC50 (concentration killing 50% of cells) (OVCAR-8): 64600 nM | TGI (OVCAR-8): 15100 nM | GI50 (OVCAR-4): 2450 nM | LC50 (concentration killing 50% of cells) (OVCAR-4): > 100000 nM | TGI (OVCAR-4): 6600 nM | GI50 (OVCAR-3): 1380 nM | LC50 (OVCAR-3): 8910 nM | TGI (OVCAR-3): 3540 nM | GI50 (SK-MEL-28): 7940 nM | LC50 (concentration killing 50% of cells) (SK-MEL-28): > 100000 nM | TGI (SK-MEL-28): 30900 nM | GI50 (U-251): 1250 nM | LC50 (concentration killing 50% of cells) (U-251): 7410 nM | TGI (U-251): 3010 nM | LC50 (concentration killing 50% of cells) (SF-539): 70800 nM | GI50 (MDA-MB-435): 1620 nM | LC50 (MDA-MB-435): 15800 nM | TGI (MDA-MB-435): 4360 nM | GI50 (BT-549): 5620 nM | LC50 (50% lethal concentration) (BT-549): 57500 nM | TGI (BT-549): 21400 nM | GI50 (MCF7): 410 nM | LC50 (concentration killing 50% of cells) (MCF7): > 100000 nM | TGI (MCF7): 77600 nM | GI50 (UO-31): 2080 nM | LC50 (concentration causing 50% net cell kill) (UO-31): > 100000 nM | TGI (UO-31): 4570 nM | GI50 (PC-3): 4780 nM | LC50 (concentration causing 50% cell kill) (PC-3): > 100000 nM | TGI (PC-3): 72400 nM | GI50 (SN12C): 1020 nM | LC50 (50% lethal concentration) (SN12C): 5370 nM | TGI (SN12C): 2340 nM | GI50 (KM12): 2140 nM | TGI (KM12): 10200 nM | CC50 (KM12): 95500 nM | GI50 (HCT-15): 1950 nM | TGI (HCT-15): 12600 nM | CC50 (HCT-15): 63100 nM | GI50 (HCT-116): 1120 nM | TGI (HCT-116): 2450 nM | CC50 (HCT-116): 25100 nM | GI50 (COLO 205): 2230 nM | TGI (COLO 205): > 100000 nM | CC50 (COLO 205; [1]): > 100000 nM | GI50 (NCI-H522): 3540 nM | TGI (NCI-H522): > 100000 nM | CC50 (NCI-H522): > 100000 nM | GI50 (NCI-H226): 1580 nM | TGI (NCI-H226): 7410 nM | CC50 (NCI-H226): 49000 nM | GI50 (RPMI-8226): 2130 nM | TGI (RPMI-8226): 9340 nM | CC50 (RPMI-8226; [1]): > 100000 nM | GI50 (K562): 2910 nM | TGI (K562): > 100000 nM | CC50 (K562): > 100000 nM | GI50 (CCRF-CEM): 510 nM | TGI (CCRF-CEM): > 100000 nM | CC50 (CCRF-CEM): > 100000 nM | growth at 100 µM (SF-268): 26% | growth at 100 µM (NCI-H460): 0%
